Ki data for 24 compounds are collected here from patent US10562908B2, “Ortho substituted phenylpyrazolo- and phenylpyrrolo-pyridazine derivatives having multimodal activity against pain” (priority 2016, dated 2020).

Where two headings read alike, the source gives them in different places.

For one assay, the target named is T1, human μ-opioid receptor (Homo sapiens, UniProt P35372).
T1 construct: expressed in transfected cells; host or cells: CHO-K1
The assay is described as follows: Human μ-opioid receptor radioligand assay ([3H]-DAMGO). The format is binding. The procedure: Human μ-Opioid Receptor Radioligand Assay
To investigate binding properties of test compounds to human μ-opioid receptor, transfected CHO-K1 cell membranes and [^3H]-DAMGO (Perkin Elmer, ES-542-C), as the radioligand, were used. The assay was carried out with 20 μg of membrane suspension, 1 nM of [^3H]-DAMGO in either absence or presence of either buffer or 10 μM Naloxone for total and non-specific binding, respectively. Binding buffer contained Tris-HCl 50 mM, MgCl2 5 mM at pH 7.4. Plates were incubated at 27° C. for 60 minutes. After the incubation period, the reaction mix was then transferred to MultiScreen HTS, FC plates (Millipore), filtered and plates were washed 3 times with ice-cold 10 mM Tris-HCL (pH 7.4). Filters were dried and counted at approximately 40% efficiency in a MicroBeta scintillation counter (Perkin-Elmer) using EcoScint liquid scintillation cocktail, preferably, transfected CHO-K1 cell membranes (20 μg) were incubated with 1 nM of [^3H]-DAMGO in assay buffer containing Tris-HCl 50 mM, MgCl2 5 mM at pH 7.4. NBS (non-specific binding) was measured by adding 10 μM Naloxone. The binding of the test compound was measured at five different concentrations. Plates were incubated at 27° C. for 60 minutes. After the incubation period, the reaction mix was then transferred to MultiScreen HTS, FC plates (Millipore), filtered and plates were washed 3 times with ice-cold 10 mM Tris-HCL (pH 7.4). Filters were dried and counted at approximately 40% efficiency in a MicroBeta scintillation counter (Perkin-Elmer) using EcoScint liquid scintillation cocktail.

Assay [1] concerns the target Human α2δ-1 subunit of Cav2.2 calcium channel (Homo sapiens, UniProt P54289). The assay is described as follows: Human α2δ-1 subunit of Cav2.2 calcium channel assay ([3H]-Gabapentin). The format is binding. The procedure:
Human α2δ-1 Subunit of Cav2.2 Calcium Channel Assay
Human α2δ-1 enriched membranes (2.5 μg) were incubated with 15 nM of radiolabeled [3H]-Gabapentin in assay buffer containing Hepes-KOH 10 mM, pH 7.4. NSB (non specific binding) was measured by adding 10 μM pregabalin. After 60 min incubation at 27° C., binding reaction was terminated by filtering through Multiscreen GF/C (Millipore) presoaked in 0.5% polyethyleneimine in Vacuum Manifold Station, followed by 3 washes with ice-cold filtration buffer containing 50 mM Tris-HCl, pH 7.4. Filter plates were dried at 60° C. for 1 hour and 30 μl of scintillation cocktail were added to each well before radioactivity reading. Readings were performed in a Trilux 1450 Microbeta radioactive counter (Perkin Elmer), i.e. Human α2δ-1 enriched membranes (2.5 μg) were incubated with 15 nM of radiolabeled [3H]-Gabapentin in assay buffer containing Hepes-KOH 10 mM, pH 7.4. NSB (non specific binding) was measured by adding 10 μM pregabalin. The binding of the test compound was measured at five different concentrations. After 60 min incubation at 27° C., binding reaction was terminated by filtering through Multiscreen GF/C (Millipore) presoaked in 0.5% polyethyleneimine in Vacuum Manifold Station, followed by 3 washes with ice-cold filtration buffer containing 50 mM Tris-HCl, pH 7.4. Filter plates were dried at 60° C. for 1 hour and 30 μl of scintillation cocktail were added to each well before radioactivity reading. Readings were performed in a Trilux 1450 Microbeta radioactive counter (Perkin Elmer).

[2] abbreviates: transfected CHO-K1 cell membranes, 1 nM [3H]-DAMGO, read-out: Binding μ (Ki).
Setting [3] is: human α2δ-1 enriched membranes, 15 nM [3H]-Gabapentin, read-out: Binding α2δ-1 (Ki).

Chain of Human α2δ-1 subunit of Cav2.2 calcium channel (P54289 25-1103): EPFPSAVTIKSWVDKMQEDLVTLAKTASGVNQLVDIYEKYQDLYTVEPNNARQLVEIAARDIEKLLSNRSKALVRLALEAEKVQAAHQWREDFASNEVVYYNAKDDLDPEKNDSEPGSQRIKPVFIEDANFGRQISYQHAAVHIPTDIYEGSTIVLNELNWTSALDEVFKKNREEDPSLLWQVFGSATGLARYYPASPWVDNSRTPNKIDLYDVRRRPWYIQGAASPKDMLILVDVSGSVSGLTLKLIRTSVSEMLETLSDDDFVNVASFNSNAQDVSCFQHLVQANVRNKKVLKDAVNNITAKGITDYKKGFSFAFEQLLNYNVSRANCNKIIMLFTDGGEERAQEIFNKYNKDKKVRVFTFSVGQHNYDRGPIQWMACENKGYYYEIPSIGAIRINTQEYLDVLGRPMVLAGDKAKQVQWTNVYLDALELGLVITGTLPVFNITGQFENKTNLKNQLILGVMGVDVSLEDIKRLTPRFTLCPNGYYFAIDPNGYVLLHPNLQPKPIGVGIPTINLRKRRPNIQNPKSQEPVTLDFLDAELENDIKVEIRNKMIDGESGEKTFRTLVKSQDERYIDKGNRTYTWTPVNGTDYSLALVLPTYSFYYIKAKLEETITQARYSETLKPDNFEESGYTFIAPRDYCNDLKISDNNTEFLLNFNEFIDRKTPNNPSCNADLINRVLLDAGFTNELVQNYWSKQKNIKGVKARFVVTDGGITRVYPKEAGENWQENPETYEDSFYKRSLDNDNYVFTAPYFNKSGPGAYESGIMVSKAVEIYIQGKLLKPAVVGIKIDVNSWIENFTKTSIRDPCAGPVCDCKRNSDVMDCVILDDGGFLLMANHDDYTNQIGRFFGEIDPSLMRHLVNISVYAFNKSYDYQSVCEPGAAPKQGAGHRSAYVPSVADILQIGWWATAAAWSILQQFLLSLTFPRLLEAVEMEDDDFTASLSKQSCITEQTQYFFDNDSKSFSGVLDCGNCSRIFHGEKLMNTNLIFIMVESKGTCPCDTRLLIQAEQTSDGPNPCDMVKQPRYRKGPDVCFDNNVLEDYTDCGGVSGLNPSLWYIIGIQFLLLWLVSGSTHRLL
T1 sequence (P35372 whole entry): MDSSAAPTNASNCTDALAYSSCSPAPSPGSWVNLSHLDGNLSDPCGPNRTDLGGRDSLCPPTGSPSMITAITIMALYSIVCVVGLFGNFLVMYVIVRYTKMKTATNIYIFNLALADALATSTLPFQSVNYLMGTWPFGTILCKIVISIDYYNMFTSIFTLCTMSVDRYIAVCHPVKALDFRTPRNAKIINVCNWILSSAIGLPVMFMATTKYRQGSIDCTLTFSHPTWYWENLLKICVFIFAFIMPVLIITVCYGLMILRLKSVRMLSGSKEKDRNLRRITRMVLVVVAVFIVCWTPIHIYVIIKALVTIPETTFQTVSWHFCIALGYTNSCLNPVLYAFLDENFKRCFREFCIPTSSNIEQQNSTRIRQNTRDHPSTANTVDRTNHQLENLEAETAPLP

For the compound `CCNCCC(Oc1ccccc1-n1nc2c(N(C)C)nnc(C)c2c1C)c1ccccc1` (stereo not drawn) [Example 1, 2-(2-(3-(Ethylamino)-1-phenylpropoxy)phenyl)-N,N,3,4-tetramethyl-2H-pyrazolo[3,4-d]pyridazin-7-amine], the inhibitory constant (Ki) was 100 to 500 nM on human μ-opioid receptor and 0.5 to 5 µM in assay [1].
As for `Cc1nnc(N(C)C)c2nn(-c3ccccc3OCCN3CCCC3)c(C)c12` [Example 2, N,N,3,4-tetramethyl-2-(2-(2-(pyrrolidin-1-yl)ethoxy)phenyl)-2H-pyrazolo[3,4-d]pyridazin-7-amine], the inhibitory constant (Ki) at human μ-opioid receptor (setting [2]) was over 500 nM; in assay [1] (setting [3]), over 5 µM.
Regarding `Cc1nnc(N(C)C)c2nn(-c3ccccc3OCC3CCNCC3)c(C)c12` [Example 3, N,N,3,4-tetramethyl-2-(2-(piperidin-4-ylmethoxy)phenyl)-2H-pyrazolo[3,4-d]pyridazin-7-amine], the inhibitory constant (Ki) is over 500 nM at human μ-opioid receptor (setting [2]) and over 5 µM in assay [1] (setting [3]).
For `CNCCCOc1ccccc1-n1nc2c(N(C)C)nnc(C)c2c1C` [Example 4, N,N,3,4-tetramethyl-2-(2-(3-(methylamino)propoxy)phenyl)-2H-pyrazolo[3,4-d]pyridazin-7-amine], the values for the inhibition constant (Ki) (on human μ-opioid receptor (setting [2]); in assay [1] (setting [3])) were over 500 nM and 0.5 to 5 µM, respectively.
For the compound `Cc1nnc(N(C)C)c2nn(-c3ccccc3OCC3CCCNC3)c(C)c12` (stereo not drawn) [Example 5, N,N,3,4-tetramethyl-2-(2-(piperidin-3-ylmethoxy)phenyl)-2H-pyrazolo[3,4-d]pyridazin-7-amine], the Ki was over 500 nM at human μ-opioid receptor (setting [2]) and 0.5 to 5 µM in assay [1] (setting [3]).
For the compound `CNCCC(Oc1ccccc1-n1nc2c(N(C)C)nnc(C)c2c1C)c1ccccc1` (stereo not drawn) [Example 6, N,N,3,4-tetramethyl-2-(2-(3-(methylamino)-1-phenylpropoxy)phenyl)-2H-pyrazolo[3,4-d]pyridazin-7-amine], the figures for the inhibitory constant (Ki) (at human μ-opioid receptor; in assay [1]) were 100 to 500 nM and 0.5 to 5 µM, respectively.
As to `CNCCC(Oc1ccccc1-n1nc2c(NCc3ccccc3)nnc(C)c2c1C)c1ccccc1` (stereo not drawn) [Example 7, N-benzyl-3,4-dimethyl-2-(2-(3-(methylamino)-1-phenylpropoxy)phenyl)-2H-pyrazolo[3,4-d]pyridazin-7-amine], the figures for the Ki (at human μ-opioid receptor (setting [2]); in assay [1] (setting [3])) were over 500 nM and 0.5 to 5 µM, respectively.
With `Cc1nnc(N(C)C)c2nn(-c3ccccc3OC3CCN(Cc4ccccc4)C3)c(C)c12` (stereo not drawn) [Example 8, 2-(2-((1-benzylpyrrolidin-3-yl)oxy)phenyl)-N,N,3,4-tetramethyl-2H-pyrazolo[3,4-d]pyridazin-7-amine], the Ki was over 500 nM on human μ-opioid receptor (setting [2]) and 0.5 to 5 µM in assay [1] (setting [3]).
As to `CNCCC(Oc1ccccc1-n1nc2c(Nc3ccccc3)nnc(C)c2c1C)c1ccccc1` (stereo not drawn) [Example 9, 3,4-dimethyl-2-(2-(3-(methylamino)-1-phenylpropoxy)phenyl)-N-phenyl-2H-pyrazolo[3,4-d]pyridazin-7-amine], the Ki was 100 to 500 nM at human μ-opioid receptor and over 5 µM in assay [1].
In the case of `CNCCC(C)Oc1ccccc1-n1nc2c(N(C)C)nnc(C)c2c1C` (stereo not drawn) [Example 10, N,N,3,4-tetramethyl-2-(2-((4-(methylamino)butan-2-yl)oxy)phenyl)-2H-pyrazolo[3,4-d]pyridazin-7-amine], the Ki on human μ-opioid receptor (setting [2]) is over 500 nM; in assay [1] (setting [3]) it was 0.5 to 5 µM.
Regarding `Cc1nnc(N(C)C)c2nn(-c3ccccc3OC(c3ccccc3)C3CCNCC3)c(C)c12` (stereo not drawn) [Example 11, N,N,3,4-tetramethyl-2-(2-(phenyl(piperidin-4-yl)methoxy)phenyl)-2H-pyrazolo[3,4-d]pyridazin-7-amine], the Ki on human μ-opioid receptor (setting [2]) is over 500 nM; in assay [1] (setting [3]) it was 0.5 to 5 µM.
In the same order, the values of `Cc1nnc(N(C)C)c2nn(-c3ccccc3OC(C)CCNCc3ccccc3)c(C)c12` (stereo not drawn) [Example 12, 2-(2-((4-(benzylamino)butan-2-yl)oxy)phenyl)-N,N,3,4-tetramethyl-2H-pyrazolo[3,4-d]pyridazin-7-amine] are over 500 nM and 0.5 to 5 µM.
In the same order, the values of `Cc1nnc(N(C)C)c2nn(-c3ccccc3OC3CCNCC3)c(C)c12` [Example 13, N,N,3,4-tetramethyl-2-(2-(piperidin-4-yloxy)phenyl)-2H-pyrazolo[3,4-d]pyridazin-7-amine] are over 500 nM and over 5 µM.
As to `CNCCC(Oc1ccccc1-n1nc2c(N(C)C)nnc(C)c2c1C)c1cccc(C#N)c1` (stereo not drawn) [Example 14, 3-(1-(2-(7-(dimethylamino)-3,4-dimethyl-2H-pyrazolo[3,4-d]pyridazin-2-yl)phenoxy)-3-(methylamino)propyl)benzonitrile], the Ki on human μ-opioid receptor (setting [2]) was over 500 nM; in assay [1] (setting [3]) it was 0.5 to 5 µM.
Turning to `CNCCC(Oc1ccccc1-n1nc2c(N(C)C)nnc(C)c2c1C)c1ccc(C#N)cc1` (stereo not drawn) [Example 15, 4-(1-(2-(7-(dimethylamino)-3,4-dimethyl-2H-pyrazolo[3,4-d]pyridazin-2-yl)phenoxy)-3-(methylamino)propyl)benzonitrile], the results for the Ki (on human μ-opioid receptor (setting [2]); in assay [1] (setting [3])) were over 500 nM and 0.5 to 5 µM, respectively.
The corresponding values for `CNCCC(Oc1ccccc1-n1nc2c(N(C)C)nnc(C)c2c1C)C1CCOCC1` (stereo not drawn) [Example 16, N,N,3,4-tetramethyl-2-(2-(3-(methylamino)-1-(tetrahydro-2H-pyran-4-yl)propoxy)phenyl)-2H-pyrazolo[3,4-d]pyridazin-7-amine] are over 500 nM and over 5 µM.
`Cc1nnc(N(C)C)c2nn(-c3ccccc3OCC(N)c3ccccc3)c(C)c12` (stereo not drawn) [Example 17, 2-(2-(2-amino-2-phenylethoxy)phenyl)-N,N,3,4-tetramethyl-2H-pyrazolo[3,4-d]pyridazin-7-amine]: the results for the Ki (at human μ-opioid receptor (setting [2]); in assay [1] (setting [3])) were over 500 nM and 0.5 to 5 µM, respectively.
In the same order, the values of `CNCCC(Oc1ccccc1-n1nc2c(N(C)C)nnc(C)c2c1C)c1ccccn1` (stereo not drawn) [Example 18, N,N,3,4-tetramethyl-2-(2-(3-(methylamino)-1-(pyridin-2-yl)propoxy)phenyl)-2H-pyrazolo[3,4-d]pyridazin-7-amine] are over 500 nM and 0.5 to 5 µM.
The corresponding values for `CNCCC(Oc1ccccc1-n1nc2c(N(C)C)nnc(C)c2c1C)c1ccncc1` (stereo not drawn) [Example 19, N,N,3,4-tetramethyl-2-(2-(3-(methylamino)-1-(pyridin-4-yl)propoxy)phenyl)-2H-pyrazolo[3,4-d]pyridazin-7-amine] are over 500 nM and 0.5 to 5 µM.
Consider `Cc1nnc(N(C)C)c2nn(-c3ccccc3OC(CCNCC3CC3)c3ccccc3)c(C)c12` (stereo not drawn) [Example 20, 2-(2-(3-((cyclopropylmethyl)amino)-1-phenylpropoxy)phenyl)-N,N,3,4-tetramethyl-2H-pyrazolo[3,4-d]pyridazin-7-amine], for which the Ki at human μ-opioid receptor lay in the range of 100 to 500 nM; in assay [1], 0.5 to 5 µM.
For `CNCCC(Oc1ccccc1-n1nc2c(N(C)C)nnc(C)c2c1C)c1cccnc1` (stereo not drawn) [Example 21, N,N,3,4-tetramethyl-2-(2-(3-(methylamino)-1-(pyridin-3-yl)propoxy)phenyl)-2H-pyrazolo[3,4-d]pyridazin-7-amine], the Ki is over 500 nM on human μ-opioid receptor (setting [2]) and 0.5 to 5 µM in assay [1] (setting [3]).
The corresponding values for `Cc1nnc(N(C)C)c2nn(-c3ccccc3OCCC(N)c3ccccc3)c(C)c12` (stereo not drawn) [Example 22, 2-(2-(3-amino-3-phenylpropoxy)phenyl)-N,N,3,4-tetramethyl-2H-pyrazolo[3,4-d]pyridazin-7-amine] are over 500 nM and 0.5 to 5 µM.
In the same order, the values of `CNCCC(Oc1ccccc1-n1nc2c(N3CCOCC3)nnc(C)c2c1C)c1ccccc1` (stereo not drawn) [Example 23, 3-(2-(3,4-dimethyl-7-morpholino-2H-pyrazolo[3,4-d]pyridazin-2-yl)phenoxy)-N-methyl-3-phenylpropan-1-amine] are over 500 nM and 0.5 to 5 µM.
Take `CCCNCCC(Oc1ccccc1-n1nc2c(N(C)C)nnc(C)c2c1C)c1ccccc1` (stereo not drawn) [Example 24, N,N,3,4-tetramethyl-2-(2-(1-phenyl-3-(propylamino)propoxy)phenyl)-2H-pyrazolo[3,4-d]pyridazin-7-amine]: the inhibition constant Ki on human μ-opioid receptor was in the range of 100 to 500 nM; in assay [1] it was 0.5 to 5 µM.
